The values that follow are results of earlier work, collected in patent US5849729A, “Use of hydrolyzed cocoa butter for percutaneous absorption” (Hershey Foods Corporation, priority 1995, dated 1998).

For the data set the following is noted: cited from earlier work.
The mark [1] stands for this setting: in vivo, topical or ocular, 120 h.

Like-named read-outs stand apart in the source and are kept apart here.

As for `C[C@]12CCC(=O)C=C1CC[C@@H]1[C@@H]2CC[C@@]2(C)[C@H]1CC[C@]2(O)C(=O)CO` [17-OII DOC], for the setting “in vivo”, the “Absorption Rate 0-12” value is recorded as “.041 % hr”, the “Absorption Rate 12-24” value is listed as “.101 % hr”, the “Absorption Rate 24-48” value is “.084 % hr” and the “Absorption Rate 48-72” value is listed as “.076 % hr”. Where the note is “in vivo”, the “Absorption Rate 72-96” value is on record as “.062 % hr” and the “Absorption Rate 96-120” value is listed as “.065 % hr”. In addition, for the setting “topical, 0-120 hrs”, the “Total Absorption (T of above)” value is 8.41 % of the dose.
`CC(=O)[C@@]1(O)CC[C@H]2[C@@H]3CCC4=CC(=O)CC[C@]4(C)[C@H]3CC[C@@]21C` [17-OII Progesterone]: under “topical, 0-120 hrs”, the “Total Absorption (T of above)” value was 14.76 % of the dose.
As to `C[C@]12CCC(=O)C=C1CC[C@@H]1[C@@H]2CC[C@]2(C)C(=O)CC[C@@H]12` [Androstenedione], under “topical, 0-12 hrs”, the “Absorption Rate 0-12” value is recorded as “.183 % hr”. The “Total Absorption (T of above)” value (topical, 0-120 hrs) is listed as 13.47 % of the dose. Moreover, the “Absorption Rate 12-24” value (topical, 12-24 hrs) was “.334 % hr”. Also, the “Absorption Rate 24-48” value (topical, 24-48 hrs) is reported as “.155 % hr”. Also, the “Absorption Rate 48-72” value (topical, 48-72 hrs) is “.076 % hr”. In addition, the “Absorption Rate 72-96” value (topical, 72-96 hrs) was “.043 % hr”. Further, the “Absorption Rate 96-120” value (topical, 96-120 hrs) was “.028 % hr”.
Turning to `C[C@]12C[C@H](O)[C@H]3[C@@H](CCC4=CC(=O)CC[C@@]43C)[C@@H]1CC[C@@H]2C(=O)CO` [Corticosterone], the “Absorption Rate 0-12” value (topical, 0-12 hrs) is “.013 % hr”. The “Total Absorption (T of above)” value (topical, 0-120 hrs) was 8.78 % of the dose. For the setting “topical, 12-24 hrs”, the “Absorption Rate 12-24” value is listed as “.065 % hr”. Further, for the setting “topical, 24-48 hrs”, the “Absorption Rate 24-48” value is recorded as “.139 % hr”. For the setting “topical, 48-72 hrs”, the “Absorption Rate 48-72” value is reported as “.070 % hr”. The “Absorption Rate 72-96” value (topical, 72-96 hrs) is reported as “.050 % hr”. Besides, the “Absorption Rate 96-120” value (topical, 96-120 hrs) is listed as “.039 % hr”.
In the case of `C[C@]12CCC(=O)C=C1CC[C@@H]1[C@@H]2C(=O)C[C@@]2(C)[C@H]1CC[C@]2(O)C(=O)CO` [Cortisone], the “absorption through the skin of closely related corticosteroid compounds” value (“absorption through the skin” below) (published literature, topical) is 1-3 % of the dose. The “Absorption Rate 0-12” value (topical, 0-12 hrs) is reported as “.015 % hr”. Further, the “Total Absorption (T of above)” value (topical, 0-120 hrs) is on record as 3.38 % of the dose. In addition, under “topical, 12-24 hrs”, the “Absorption Rate 12-24” value is listed as “.037 % hr”. The “Absorption Rate 24-48” value (topical, 24-48 hrs) is listed as “.039 % hr”. Further, the “Absorption Rate 48-72” value (topical, 48-72 hrs) is on record as “.036 % hr”. In addition, where the note is “topical, 72-96 hrs”, the “Absorption Rate 72-96” value is “.032 % hr”. Besides, where the note is “topical, 96-120 hrs”, the “Absorption Rate 96-120” value is recorded as “.024 % hr”.
Take `C[C@]12CC[C@H](O)CC1=CC[C@@H]1[C@@H]2CC[C@]2(C)C(=O)CC[C@@H]12` [Dehydroepiandrosterone]: under “topical, 0-12 hrs”, the “Absorption Rate 0-12” value is recorded as “.265 % hr”. Where the note is “topical, 0-120 hrs”, the “Total Absorption (T of above)” value is listed as 18.45 % of the dose. In addition, where the note is “topical, 12-24 hrs”, the “Absorption Rate 12-24” value is “.446 % hr”. Also, for the setting “topical, 24-48 hrs”, the “Absorption Rate 24-48” value is “.249 % hr”. The “Absorption Rate 48-72” value (topical, 48-72 hrs) is “.091 % hr”. Also, the “Absorption Rate 72-96” value (topical, 72-96 hrs) is reported as “.046 % hr”. Besides, the “Absorption Rate 96-120” value (topical, 96-120 hrs) was “.028 % hr”.
In the case of `C[C@]12CC[C@H]3[C@@H](CCC4=CC(=O)CC[C@@]43C)[C@@H]1CC[C@@H]2C(=O)CO` [Desoxycorticosterone], the “Total Absorption (T of above)” value under setting [1] is given as 12.55 % of the dose. Moreover, the “Absorption Rate 0-12” value (topical, 0-12 hrs) is “.197 % hr”. Besides, where the note is “topical, 12-24 hrs”, the “Absorption Rate 12-24” value was “.313 % hr”. Moreover, the “Absorption Rate 24-48” value (topical, 24-48 hrs) was “.143 % hr”. In addition, the “Absorption Rate 48-72” value (topical, 48-72 hrs) is reported as “.069 % hr”. The “Absorption Rate 72-96” value (topical, 72-96 hrs) is recorded as “.035 % hr”. In addition, the “Absorption Rate 96-120” value (topical, 96-120 hrs) was “.020 % hr”.
For `C[C@@H]1C[C@H]2[C@@H]3CCC4=CC(=O)C=C[C@]4(C)[C@@]3(F)[C@@H](O)C[C@]2(C)[C@@]1(O)C(=O)CO` [Dexamethasone], the “Absorption Rate 0-12” value (topical, 0-12 hrs) is given as “.005 % hr”. Also, the “Total Absorption (T of above)” value (topical, 0-120 hrs) was “.40 % of the dose”. In addition, where the note is “topical, 12-24 hrs”, the “Absorption Rate 12-24” value is “.003 % hr”. Besides, the “Absorption Rate 24-48” value (topical, 24-48 hrs) is given as “.004 % hr”. Besides, where the note is “topical, 48-72 hrs”, the “Absorption Rate 48-72” value is “.003 % hr”. For the same compound, the “Absorption Rate 72-96” value (topical, 72-96 hrs) is “.002 % hr”. Further, the “Absorption Rate 96-120” value (topical, 96-120 hrs) is given as “.002 % hr”.
For the compound `C[C@]12CC[C@@H]3c4ccc(O)cc4CC[C@H]3[C@@H]1CC[C@@H]2O` [Estradiol], the “Total Absorption (T of above)” value under setting [1] is recorded as 10.62 % of the dose. Besides, for the setting “in vivo”, the “Absorption Rate 0-12” value was “.008 % hr”, the “Absorption Rate 12-24” value is “.056 % hr”, the “Absorption Rate 24-48” value was “.099 % hr” and the “Absorption Rate 48-72” value is “.101 % hr”. Besides, for the setting “in vivo”, the “Absorption Rate 72-96” value is listed as “.107 % hr” and the “Absorption Rate 96-120” value is reported as “.103 % hr”.
With `CC1(C)O[C@@H]2C[C@H]3[C@@H]4C[C@H](F)C5=CC(=O)C=C[C@]5(C)[C@@]4(F)[C@@H](O)C[C@]3(C)[C@]2(C(=O)CO)O1` [Flucinoione Acetonide, fluocinolone acetonide], under “in vivo”, the “Absorption Rate 0-12” value was “.002 % hr”, the “Absorption Rate 12-24” value is given as “.011 % hr”, the “Absorption Rate 24-48” value is on record as “.012 % hr” and the “Absorption Rate 48-72” value was “.016 % hr”. Under “in vivo”, the “Absorption Rate 72-96” value is listed as “.008 % hr” and the “Absorption Rate 96-120” value was “.005 % hr”. Further, the “absorption through the skin” value (published literature, topical) is 1-3 % of the dose. Further, the “Total Absorption (T of above)” value (topical, 0-120 hrs) is 1.34 % of the dose.
Regarding `CC(=O)OCC(=O)[C@@]1(O)CC[C@H]2[C@@H]3CCC4=CC(=O)CC[C@]4(C)[C@H]3[C@@H](O)C[C@@]21C` [Hydrocortisone Acetate], the “Total Absorption (T of above)” value under setting [1] was 2.55 % of the dose. Also, the “absorption through the skin” value (in vivo, topical or ocular) was 1-3 % of the dose. Besides, for the setting “in vivo”, the “Absorption Rate 0-12” value was “.020 % hr”, the “Absorption Rate 12-24” value is on record as “.089 % hr”, the “Absorption Rate 24-48” value is recorded as “.032 % hr” and the “Absorption Rate 48-72” value is reported as “.024 % hr”. For the setting “in vivo”, the “Absorption Rate 72-96” value is recorded as “.015 % hr” and the “Absorption Rate 96-120” value was “.008 % hr”.
As for `C[C@]12CCC(=O)C=C1CC[C@@H]1[C@@H]2[C@@H](O)C[C@@]2(C)[C@H]1CC[C@]2(O)C(=O)CO` [Hydrocortisone], the “Total Absorption (T of above)” value under setting [1] is given as 1.87 % of the dose. Besides, under “in vivo, topical or ocular”, the “absorption through the skin” value was 1-3 % of the dose. Besides, under “in vivo”, the “Absorption Rate 0-12” value is “.005 % hr”, the “Absorption Rate 12-24” value is “.023 % hr”, the “Absorption Rate 24-48” value is “.019 % hr” and the “Absorption Rate 48-72” value was “.018 % hr”. For the setting “in vivo”, the “Absorption Rate 72-96” value is “.016 % hr” and the “Absorption Rate 96-120” value is listed as “.010 % hr”.
Turning to `CC(=O)[C@H]1CC[C@H]2[C@@H]3CCC4=CC(=O)CC[C@]4(C)[C@H]3CC[C@]12C` [Progesterone], the “Total Absorption (T of above)” value under setting [1] is 10.81 % of the dose. In addition, under “in vivo”, the “Absorption Rate 0-12” value is listed as “.208 % hr”, the “Absorption Rate 12-24” value was “.264 % hr”, the “Absorption Rate 24-48” value is recorded as “.135 % hr” and the “Absorption Rate 48-72” value is on record as “.045 % hr”. Further, for the setting “in vivo”, the “Absorption Rate 72-96” value is listed as “.024 % hr” and the “Absorption Rate 96-120” value was “.011 % hr”.
In the case of `CC(=O)O[C@H]1CC[C@H]2[C@@H]3CCC4=CC(=O)CC[C@]4(C)[C@H]3CC[C@]12C` [Testosterone Acetate], where the note is “topical, 0-12 hrs”, the “Absorption Rate 0-12” value was “.103 % hr”. Also, where the note is “topical, 0-120 hrs”, the “Total Absorption (T of above)” value was 4.62 % of the dose. The “Absorption Rate 12-24” value (topical, 12-24 hrs) is on record as “.133 % hr”. Further, where the note is “topical, 24-48 hrs”, the “Absorption Rate 24-48” value is “.048 % hr”. The “Absorption Rate 48-72” value (topical, 48-72 hrs) is listed as “.015 % hr”. For the same compound, where the note is “topical, 72-96 hrs”, the “Absorption Rate 72-96” value is “.007 % hr”. Moreover, under “topical, 96-120 hrs”, the “Absorption Rate 96-120” value was “.004 % hr”.
With `CCC(=O)O[C@H]1CC[C@H]2[C@@H]3CCC4=CC(=O)CC[C@]4(C)[C@H]3CC[C@]12C` [Testosterone Propionate], the “Absorption Rate 0-12” value (topical, 0-12 hrs) was “.061 % hr”. The “Total Absorption (T of above)” value (topical, 0-120 hrs) was 3.44 % of the dose. In addition, the “Absorption Rate 12-24” value (topical, 12-24 hrs) is reported as “.096 % hr”. For the same compound, the “Absorption Rate 24-48” value (topical, 24-48 hrs) was “.035 % hr”. Moreover, where the note is “topical, 48-72 hrs”, the “Absorption Rate 48-72” value is “.015 % hr”. The “Absorption Rate 72-96” value (topical, 72-96 hrs) was “.009 % hr”. Moreover, the “Absorption Rate 96-120” value (topical, 96-120 hrs) is given as “.005 % hr”.
Consider `C[C@]12CC[C@H]3[C@@H](CCC4=CC(=O)CC[C@@]43C)[C@@H]1CC[C@@H]2O` [Testosterone], for which, for the setting “topical, 0-12 hrs”, the “Absorption Rate 0-12” value is listed as “.147 % hr”. The “Total Absorption (T of above)” value (topical, 0-120 hrs) was 13.24 % of the dose. In addition, for the setting “topical, 12-24 hrs”, the “Absorption Rate 12-24” value was “.364 % hr”. Further, the “Absorption Rate 24-48” value (topical, 24-48 hrs) is recorded as “.156 % hr”. In addition, the “Absorption Rate 48-72” value (topical, 48-72 hrs) was “.066 % hr”. Also, the “Absorption Rate 72-96” value (topical, 72-96 hrs) is on record as “.036 % hr”. Also, the “Absorption Rate 96-120” value (topical, 96-120 hrs) is listed as “.018 % hr”.
